In ChEMBL document CHEMBL1201862, “PubChem BioAssay data set” (2004):
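These data come from cells grown in 96-well plates and exposed to compound for 48 hours at five concentrations. The concentration for 50% growth inhibition is given as GI50.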 Calls of active or inactive are those of the source. Cut-off read from the data, not from the text of the source: active = GI50 up to about 1.1 µM and inactive = higher.

How the values were obtained:
Assay in all cases: growth of human tumour cells (NCI), 48 h
[1] = test system: UO-31
[2] = test system: CCRF-CEM
[3] = test system: SK-MEL-28
[4] = test system: OVCAR-8
[5] = test system: NCI-H460
[6] = test system: HCT-116
[7] = test system: HCC 2998
[8] = test system: NCI-H23
[9] = test system: TK-10
[10] = test system: SR
[11] = test system: SNB-19
[12] = test system: MOLT-4
[13] = test system: SK-OV-3
[14] = test system: 786-0
[15] = test system: Malme-3M
[16] = test system: SF-295
[17] = test system: MDA-MB-231
[18] = test system: OVCAR-4

| SMILES | GI50 [1] | GI50 [2] | GI50 [3] | GI50 [4] | GI50 [5] | GI50 [6] | GI50 [7] | GI50 [8] | GI50 [9] | GI50 [10] | GI50 [11] | GI50 [12] | GI50 [13] | GI50 [14] | GI50 [15] | GI50 [16] | GI50 [17] | GI50 [18] |
| --- | --- | --- | --- | --- | --- | --- | --- | --- | --- | --- | --- | --- | --- | --- | --- | --- | --- | --- |
| CC(C)C[C@H](NC(=O)[C@H](Cc1cccc2ccccc12)NC(=O)N1CCOCC1)B(O)O | 0.0313 µM (active) | < 0.01 µM (active) | < 0.01 µM (active) | < 0.0128 µM (active) | < 0.012 µM (active) | < 0.01 µM (active) | < 0.01 µM (active) | < 0.01 µM (active) | < 0.01 µM (active) | < 0.0126 µM (active) | < 0.01 µM (active) | < 0.01 µM (active) | 0.008 µM (active) | 0.00362 µM (active) | < 0.01 µM (active) | 0.00348 µM (active) | < 0.01 µM (active) | < 0.01 µM (active) |
| CCC1(O)C(=O)OCc2c1cc1n(c2=O)Cc2cc3ccccc3nc2-1 (configuration not stated) | 0.0235 µM (active) | < 0.0122 µM (active) | 0.334 µM (active) | 0.0653 µM (active) | < 0.0403 µM (active) | 0.048 µM (active) | 0.895 µM (active) | < 0.0188 µM (active) | 6.73 µM (inactive) | < 0.01 µM (active) | 0.0143 µM (active) | < 0.01 µM (active) | 0.0312 µM (active) | 0.0279 µM (active) | 0.431 µM (active) | < 0.01 µM (active) | 0.857 µM (active) | 0.504 µM (active) |
| O=[N+]([O-])/C(C(Cl)=C(Cl)Cl)=C(/Nc1ccccc1)Sc1ccccc1 | 14 µM (inactive) | 16.8 µM (inactive) | 19.7 µM (inactive) | 17.7 µM (inactive) | 18.4 µM (inactive) | 18.5 µM (inactive) | 18.5 µM (inactive) | 18.7 µM (inactive) | 27.7 µM (inactive) | 20.7 µM (inactive) | 17.5 µM (inactive) | 19.8 µM (inactive) | 20.1 µM (inactive) | 21.7 µM (inactive) | 15.9 µM (inactive) | 16.5 µM (inactive) | 15.7 µM (inactive) | 19.7 µM (inactive) |
| O=C1c2cccc3cccc(c23)C(=O)N1CCCNCCCNCCCCNCCCNCCCN1C(=O)c2cccc3cccc(c23)C1=O | 13.1 µM (inactive) | 0.479 µM (active) | 2.46 µM (inactive) | 4.93 µM (inactive) | 1.9 µM (inactive) | 1.67 µM (inactive) | 3.52 µM (inactive) | 2.12 µM (inactive) | 11.6 µM (inactive) | 0.929 µM (active) | 2.28 µM (inactive) | 0.376 µM (active) | 12.9 µM (inactive) | 1.07 µM (active) | 2.6 µM (inactive) | 7.45 µM (inactive) | 3.78 µM (inactive) | 2.83 µM (inactive) |
| N#CCCN(CCN(C(=O)Nc1ccccc1)c1ccccc1)C(=O)Nc1ccccc1 | 31.2 µM (inactive) | 17.7 µM (inactive) | > 91.6 µM (inactive) | 64.3 µM (inactive) | > 67.5 µM (inactive) | 54.6 µM (inactive) | > 80.7 µM (inactive) | > 60.1 µM (inactive) | 61.8 µM (inactive) | 42 µM (inactive) | > 57.3 µM (inactive) | 28.8 µM (inactive) | > 100 µM (inactive) | > 100 µM (inactive) | > 100 µM (inactive) | 62.5 µM (inactive) | > 100 µM (inactive) | > 100 µM (inactive) |
| Nc1ccc2nc3c(nc2c1)C(=O)c1ccccc1-3 | – | 84.3 µM (inactive) | > 100 µM (inactive) | > 100 µM (inactive) | 69.2 µM (inactive) | > 100 µM (inactive) | > 100 µM (inactive) | > 100 µM (inactive) | > 100 µM (inactive) | > 10 µM (inactive) | > 100 µM (inactive) | 20.3 µM (inactive) | > 100 µM (inactive) | 75 µM (inactive) | > 100 µM (inactive) | > 100 µM (inactive) | > 100 µM (inactive) | > 100 µM (inactive) |
| COc1ccc(C2c3c(-c4ccccc4)nn(-c4ccccc4)c3Oc3ncn(N)c(=N)c32)cc1OC (configuration not stated) | 1.68 µM (inactive) | 2.56 µM (inactive) | 2 µM (inactive) | 2.1 µM (inactive) | 1.71 µM (inactive) | 1.67 µM (inactive) | 1.74 µM (inactive) | 2.54 µM (inactive) | 1.95 µM (inactive) | 3.53 µM (inactive) | 2.83 µM (inactive) | 3.41 µM (inactive) | 6.53 µM (inactive) | 1.67 µM (inactive) | 1.6 µM (inactive) | 2.05 µM (inactive) | 1.71 µM (inactive) | 2.45 µM (inactive) |
| CCOC(=O)C(SCCO)C(C(=O)OCC)n1cnc2c(=O)[nH]c(NC(C)=O)nc21 (configuration not stated) | > 100 µM (inactive) | > 100 µM (inactive) | > 100 µM (inactive) | > 100 µM (inactive) | > 100 µM (inactive) | > 100 µM (inactive) | > 100 µM (inactive) | > 100 µM (inactive) | > 100 µM (inactive) | 21.4 µM (inactive) | > 100 µM (inactive) | > 100 µM (inactive) | > 100 µM (inactive) | > 100 µM (inactive) | > 100 µM (inactive) | > 100 µM (inactive) | > 100 µM (inactive) | > 100 µM (inactive) |
| C=C(C)c1nc(C#N)c(N)o1 | > 100 µM (inactive) | > 100 µM (inactive) | > 100 µM (inactive) | > 100 µM (inactive) | > 100 µM (inactive) | > 100 µM (inactive) | > 100 µM (inactive) | > 100 µM (inactive) | > 100 µM (inactive) | > 100 µM (inactive) | > 100 µM (inactive) | > 100 µM (inactive) | > 100 µM (inactive) | > 100 µM (inactive) | > 100 µM (inactive) | > 100 µM (inactive) | > 100 µM (inactive) | > 100 µM (inactive) |
| N#C/C(=C1C=C(Br)/C(=N\O)C=C\1Cl)c1cccc2ccccc12 | 11 µM (inactive) | 2.62 µM (inactive) | 6.3 µM (inactive) | 6.37 µM (inactive) | 5.16 µM (inactive) | 4 µM (inactive) | 5.77 µM (inactive) | 13.2 µM (inactive) | 11.5 µM (inactive) | 3.11 µM (inactive) | 10.5 µM (inactive) | 3.75 µM (inactive) | 5.33 µM (inactive) | 3.34 µM (inactive) | 6.37 µM (inactive) | 3.12 µM (inactive) | 4.32 µM (inactive) | 2.49 µM (inactive) |
| COc1ccc(NC(=S)NNC(=O)c2cc(-c3ccccc3)nc3ccccc23)cc1 | 11.4 µM (inactive) | 12.9 µM (inactive) | 10.4 µM (inactive) | 17.2 µM (inactive) | 16.1 µM (inactive) | 12.4 µM (inactive) | 12.1 µM (inactive) | 13.6 µM (inactive) | 15.8 µM (inactive) | 2.81 µM (inactive) | 23.9 µM (inactive) | 19.7 µM (inactive) | 0.479 µM (active) | 17.9 µM (inactive) | 11.2 µM (inactive) | 3.5 µM (inactive) | 22.5 µM (inactive) | 19.3 µM (inactive) |
